One test has as its target Ephrin type-A receptor 5 (Rattus norvegicus, UniProt P54757). Description: Displacement of biotinylated Fc-tagged ephrin-A1 from recombinant N/C-terminal 6-his tagged rat EphA5 (Ser 58 to Gln573 residues) preincubated for 1 hr followed by ephrin-A1-Fc addition and measured after 4 to 5 hrs by ELISA assay. Background: An ELISA detects its analyte on a solid surface through an enzyme-linked reagent.

The target of the next test is T1, Ephrin type-A receptor 6 (Mus musculus, UniProt Q62413).
T1 sequence (Q62413 whole entry): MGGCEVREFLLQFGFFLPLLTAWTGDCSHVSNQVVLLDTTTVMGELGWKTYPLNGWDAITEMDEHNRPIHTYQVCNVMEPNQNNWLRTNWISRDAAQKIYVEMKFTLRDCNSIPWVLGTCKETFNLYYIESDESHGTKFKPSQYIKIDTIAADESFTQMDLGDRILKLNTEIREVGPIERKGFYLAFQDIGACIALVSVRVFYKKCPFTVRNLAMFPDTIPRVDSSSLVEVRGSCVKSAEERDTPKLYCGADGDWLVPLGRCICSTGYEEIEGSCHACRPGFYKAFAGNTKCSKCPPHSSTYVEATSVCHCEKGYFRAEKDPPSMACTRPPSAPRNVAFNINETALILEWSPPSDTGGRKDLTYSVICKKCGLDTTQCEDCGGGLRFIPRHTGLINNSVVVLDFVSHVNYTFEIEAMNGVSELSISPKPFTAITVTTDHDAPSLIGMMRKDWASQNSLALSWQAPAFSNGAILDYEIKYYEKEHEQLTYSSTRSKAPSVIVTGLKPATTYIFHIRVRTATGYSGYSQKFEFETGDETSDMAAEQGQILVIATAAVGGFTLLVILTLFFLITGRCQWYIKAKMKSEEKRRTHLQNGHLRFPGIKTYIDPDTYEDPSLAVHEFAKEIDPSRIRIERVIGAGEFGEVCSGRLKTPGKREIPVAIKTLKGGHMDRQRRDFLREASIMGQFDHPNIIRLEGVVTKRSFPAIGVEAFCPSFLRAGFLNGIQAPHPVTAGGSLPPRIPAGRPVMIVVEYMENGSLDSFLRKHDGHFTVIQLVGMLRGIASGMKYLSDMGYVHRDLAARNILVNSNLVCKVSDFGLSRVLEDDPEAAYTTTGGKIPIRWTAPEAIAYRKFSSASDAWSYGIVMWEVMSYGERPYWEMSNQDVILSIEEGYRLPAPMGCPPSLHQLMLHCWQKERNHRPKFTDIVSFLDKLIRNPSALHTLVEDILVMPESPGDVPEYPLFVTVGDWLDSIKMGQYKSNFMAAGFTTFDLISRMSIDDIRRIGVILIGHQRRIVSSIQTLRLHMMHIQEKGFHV
Description: Displacement of biotinylated Fc-tagged ephrin-A1 from recombinant N/C-terminal 6-his tagged mouse EphA6 (Ser28 to Gln546 residues) preincubated for 1 hr followed by ephrin-A1-Fc addition and measured after 4 to 5 hrs by ELISA assay.

The target in the next test is T2, Ephrin type-A receptor 8 (Mus musculus, UniProt O09127).
T2 sequence (O09127 whole entry): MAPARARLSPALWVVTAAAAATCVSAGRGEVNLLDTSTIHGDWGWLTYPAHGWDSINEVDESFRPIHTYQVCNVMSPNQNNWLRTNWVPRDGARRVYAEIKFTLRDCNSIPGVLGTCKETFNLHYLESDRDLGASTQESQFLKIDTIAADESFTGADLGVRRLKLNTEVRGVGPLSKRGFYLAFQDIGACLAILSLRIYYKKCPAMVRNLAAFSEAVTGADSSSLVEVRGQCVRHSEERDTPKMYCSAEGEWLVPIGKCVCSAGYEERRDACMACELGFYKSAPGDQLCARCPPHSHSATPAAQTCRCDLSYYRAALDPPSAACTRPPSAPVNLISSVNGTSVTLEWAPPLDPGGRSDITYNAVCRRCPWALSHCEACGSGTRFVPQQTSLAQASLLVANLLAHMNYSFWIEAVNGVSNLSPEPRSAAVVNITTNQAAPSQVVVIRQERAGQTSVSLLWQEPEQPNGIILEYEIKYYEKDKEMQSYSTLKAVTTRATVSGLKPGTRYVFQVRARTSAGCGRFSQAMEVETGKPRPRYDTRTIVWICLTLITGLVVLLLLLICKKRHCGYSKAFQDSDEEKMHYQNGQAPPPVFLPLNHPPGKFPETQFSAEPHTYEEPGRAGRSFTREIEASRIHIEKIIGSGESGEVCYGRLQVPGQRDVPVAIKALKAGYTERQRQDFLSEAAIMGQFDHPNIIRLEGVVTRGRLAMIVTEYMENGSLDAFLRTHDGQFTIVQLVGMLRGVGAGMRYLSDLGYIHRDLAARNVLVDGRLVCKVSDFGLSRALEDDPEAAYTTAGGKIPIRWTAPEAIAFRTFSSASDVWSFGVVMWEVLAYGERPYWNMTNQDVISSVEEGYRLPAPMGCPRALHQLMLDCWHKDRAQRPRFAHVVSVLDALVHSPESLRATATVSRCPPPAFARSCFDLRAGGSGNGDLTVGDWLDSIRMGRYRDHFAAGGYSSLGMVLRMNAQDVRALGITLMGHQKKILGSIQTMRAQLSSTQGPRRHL
Description: Displacement of biotinylated Fc-tagged ephrin-A1 from recombinant N/C-terminal 6-his tagged mouse EphA8 (Gly27 to Arg540 residues) preincubated for 1 hr followed by ephrin-A1-Fc addition and measured after 4 to 5 hrs by ELISA assay.

The structures appear in SMILES notation.

Ephrin type-A receptor 5, sequence (P54757 whole entry): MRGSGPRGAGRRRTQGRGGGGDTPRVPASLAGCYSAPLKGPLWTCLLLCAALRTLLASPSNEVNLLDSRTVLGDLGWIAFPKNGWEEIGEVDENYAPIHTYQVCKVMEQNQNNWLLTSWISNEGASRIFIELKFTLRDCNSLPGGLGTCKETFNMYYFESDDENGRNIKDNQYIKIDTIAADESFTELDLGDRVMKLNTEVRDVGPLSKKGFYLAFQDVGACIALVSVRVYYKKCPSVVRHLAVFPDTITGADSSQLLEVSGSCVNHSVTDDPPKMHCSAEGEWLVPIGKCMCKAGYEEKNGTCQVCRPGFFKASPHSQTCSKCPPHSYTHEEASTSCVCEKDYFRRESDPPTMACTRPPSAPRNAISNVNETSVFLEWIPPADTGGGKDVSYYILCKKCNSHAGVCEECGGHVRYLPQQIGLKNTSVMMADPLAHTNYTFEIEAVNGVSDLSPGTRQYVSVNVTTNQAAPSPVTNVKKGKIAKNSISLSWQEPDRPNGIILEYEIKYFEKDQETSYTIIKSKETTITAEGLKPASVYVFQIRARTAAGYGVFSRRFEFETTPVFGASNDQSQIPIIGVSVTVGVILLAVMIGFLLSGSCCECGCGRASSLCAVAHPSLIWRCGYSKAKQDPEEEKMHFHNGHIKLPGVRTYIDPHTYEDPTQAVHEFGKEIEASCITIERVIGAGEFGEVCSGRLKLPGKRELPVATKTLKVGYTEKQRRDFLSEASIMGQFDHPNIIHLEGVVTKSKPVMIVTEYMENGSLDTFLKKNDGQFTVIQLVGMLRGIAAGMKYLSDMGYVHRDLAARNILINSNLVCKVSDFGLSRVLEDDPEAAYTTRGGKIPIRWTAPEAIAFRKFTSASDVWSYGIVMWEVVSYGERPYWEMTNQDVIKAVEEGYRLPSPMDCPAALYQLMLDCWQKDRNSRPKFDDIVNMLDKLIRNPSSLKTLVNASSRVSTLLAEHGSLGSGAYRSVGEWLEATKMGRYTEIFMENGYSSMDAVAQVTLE

One may read the IC50 as the midpoint of a concentration-inhibition curve. Turning to `C[C@H](CCC(=O)N[C@H](CC(=O)O)Cc1cn(S(=O)(=O)c2ccc(C(F)(F)F)cc2)c2ccccc12)[C@H]1CC[C@H]2[C@@H]3CC=C4C[C@@H](O)CC[C@]4(C)[C@H]3CC[C@]12C`, the half-maximal inhibitory concentration (IC50) was determined as 9.3 µM at Ephrin type-A receptor 5, 10 µM on Ephrin type-A receptor 6 and 13 µM on Ephrin type-A receptor 8.

As to `C[C@H](CCC(=O)N[C@H](CC(=O)O)Cc1cn(S(=O)(=O)c2ccccc2)c2ccccc12)[C@H]1CC[C@H]2[C@@H]3CC=C4C[C@@H](O)CC[C@]4(C)[C@H]3CC[C@]12C`, the IC50 on Ephrin type-A receptor 5 was found to be 10 µM; at Ephrin type-A receptor 6, 11 µM; at Ephrin type-A receptor 8, 5.5 µM.

Turning to `C[C@H](CCC(=O)N[C@H](CC(=O)O)Cc1c[nH]c2ccccc12)[C@H]1CC[C@H]2[C@@H]3CC=C4C[C@@H](O)CC[C@]4(C)[C@H]3CC[C@]12C`, the IC50 at Ephrin type-A receptor 5 is 3 µM; on Ephrin type-A receptor 6 it was 2.9 µM; on Ephrin type-A receptor 8, 1.8 µM.

These data come from ChEMBL document CHEMBL5614382, “Discovery of a new 1-(phenylsulfonyl)-1H-indole derivative targeting the EphA2 receptor with antiproliferative activity on U251 glioblastoma cell line” (Eur J Med Chem, 2024).
